Where two headings read alike, the source gives them in different places.
Assay: Solubility in organic solvents
Format: physicochemical
Settings: organic solvent or mixture, thermodynamic from solid
[1] = 5 mg in 1 mL anisole, read-out: Solubility Anisole
[2] = 5 mg in 1 mL chloroform, read-out: Solubility Chloroform
[3] = 5 mg in 1 mL tetrahydrofuran, read-out: Solubility Tetrahydrofuran
[4] = 5 mg in 1 mL tetralin, read-out: Solubility Tetralin
[5] = 5 mg in 1 mL toluene, read-out: Solubility Toluene

Measured: solubility

CC(C)[Si](C#Cc1cc2c(cc(C#C[Si](C(C)C)(C(C)C)C(C)C)c3c4ccsc4ccc23)c2ccc3sccc3c12)(C(C)C)C(C)C [Compound 1]
> 5000 µg/mL: [1] | [2] | [3] | [4] | [5]

CC(C)[Si](C#Cc1cc2c(cc(C#C[Si](C(C)C)(C(C)C)C(C)C)c3c2ccc2ccsc23)c2ccc3ccsc3c12)(C(C)C)C(C)C [Compound 2]
> 5000 µg/mL: [1] | [2] | [3] | [4] | [5]

CC(C)[Si](C#Cc1cc2c(cc(C#C[Si](C(C)C)(C(C)C)C(C)C)c3c4cc(F)sc4ccc23)c2ccc3sc(F)cc3c12)(C(C)C)C(C)C [Compound 3]
> 5000 µg/mL: [1] | [2] | [3] | [4] | [5]

CC(C)[Si](C#Cc1cc2c(cc(C#C[Si](C(C)C)(C(C)C)C(C)C)c3c2ccc2cc(F)sc23)c2ccc3cc(F)sc3c12)(C(C)C)C(C)C [Compound 4]
> 5000 µg/mL: [1] | [2] | [3] | [4] | [5]
